In brackets after ≈: the same amount, converted by molar mass. Positions of bridges follow the written chain, without caps; N, C: chain ends. Non-standard residues stand in square brackets, D forms with d. Residues, ends and D or L forms follow the SMILES beside them. *: point of attachment. Decanoyl(3R-OH) = CCCCCCC[C@@H](O)CC(=O)*; dBip = N[C@H](Cc1ccc(-c2ccccc2)cc1)C(=O)O; dDab = NCC[C@@H](N)C(=O)O; Dab = NCC[C@H](N)C(=O)O; Dap = NC[C@H](N)C(=O)O
Key:
[1] = In vitro nephrotoxicity, LDH release from primary human kidney cells; format: cell-based; conditions: pH 7.4
Text: (§1) hPT cells were derived from whole human kidneys procured by the International Institute for the Advancement of Medicine (Edison, N.J., USA). All tissue was scored by a pathologist as normal (i.e., derived from non-cancerous, non-diseased tissue). Cell isolation procedures were based on those originally described by Todd et al. (1996) and modified (Cummings and Lash, 2000; Cummings et al., 2000) with use of sterile conditions (i.e., all instruments and glassware were autoclaved and all buffers were filtered through a 0.2-μm pore-size filter). Renal cortex and outer stripe were cut into slices, washed with sterile PBS, minced, and the pieces were placed in a trypsinization flask filled with 300 ml of sterile, filtered Hanks' buffer, containing 25 mM NaHCO3, 25 mM HEPES, pH 7.4, 0.5 mM EGTA, 0.2% (w/v) bovine serum albumin, 50 μg/ml gentamicin, 1.3 mg/mL collagenase, and 0.59 mg/ml CaCl2), which was filtered prior to use. Whole kidneys were perfused with Wisconsin medium and kept on ice until they arrived at the laboratory, which was usually within 24 h of removal from the donor.
(§2) All buffers were continuously bubbled with 95% O2/5% CO2 and were maintained at 37° C. Minced cortical pieces from whole kidneys were subjected to collagenase digestion for 60 min, after which the supernatant was filtered through a 70-μm mesh filter to remove tissue fragments, centrifuged at 150×g for 7 min, and the pellet resuspended in Dulbecco's Modified Eagle's Medium: Ham's F12 Medium (DMEM/F12; 1/1). Approximately 5 to 7×10^6 cells were obtained per 1 g of human kidney cortical tissue.
(§3) hPT cells were resuspended in 2 mL of DMEM/F12 and diluted to 500 mL with cell culture medium, which was serum-free and hormonally-defined. Composition of this supplemented medium was based on earlier work establishing optimal conditions for primary culture of rat PT cells (Lash et al., 1995). Basal medium was a 1:1 mixture of DMEM/F12. […] Cells were seeded in a volume of 0.5 ml at a density of 50-100 μg protein per cm^2 (0.5-1.0×10^6 cells/ml) on 24-well plates. Cultures were grown at 37° C. in a humidified incubator under an atmosphere of 95% air/5% CO2 at pH 7.4. Cultures were grown to approximately 80%-90% confluence (generally 5-6 days) prior to experiments. Cells were harvested by either scraping the flasks with a Teflon scraper or by brief incubation with Cellstripper (Cellgro, Herndon, Va., USA) (in Ca^2+- and Mg^2+-free Hanks' buffer).

[2] = tested on: A. baumannii ATCC 19606; conditions: ATCC 19606
In short: (§4)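 Mid-log cultures grown in Mueller Hinton broth at 37° C were tested by 2-fold broth microdilution at 5×10^5 CFU/mL final. Compounds were dissolved in water and tested over a final range of 32 to 0.015 μg/mL.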

[3] = tested on: P. aeruginosa ATCC 27853; conditions: ATCC 27853
In short: as §4

[4] = tested on: E. coli ATCC 25922; conditions: ATCC 25922
In short: as §4

[5] = tested on: K. pneumoniae ATCC 700603, MDR; conditions: ATCC 700603
In short: as §4

[6] = tested on: P. aeruginosa GN_043, PmxR; conditions: polymyxin-resistant
In short: as §4

[7] = tested on: S. aureus ATCC 25923, MSSA; conditions: ATCC 25923
In short: as §4

[8] = tested on: A. baumannii GN_093 PmxR; conditions: GN 093 PmxR
In short: as §4

[9] = tested on: K. pneumoniae ATCC BAA-2146, NDM-1 pos; conditions: ATCC BAA-2146
In short: as §4

[10] = tested on: K. pneumoniae GN_102 PmxR; conditions: GN 102 PmxR
In short: as §4

[11] = tested on: K. pneumoniae ATCC 13883; conditions: ATCC 13883
In short: as §4

[12] = tested on: K. pneumoniae GN_106, PmxR; conditions: GN 106, PmxR
In short: as §4

[13] = tested on: Neisseria gonorrhoeae; test: MIC determination, Neisseria gonorrhoeae; format: cell-based; conditions: strain FA19 ATCC BAA-1838
Description: Bacteria were either obtained from American Type Culture Collection (ATCC; Manassas, Va., USA) or independent academic clinical isolate collections, as listed in Table 18 below. Bacteria were cultured in Nutrient broth (NB; Bacto Laboratories, catalogue No. 234000) or Mueller Hinton broth (MHB; Bacto Laboratories, catalogue No. 211443) at 37° C. overnight with shaking (˜180 RPM). A sample of each culture was then diluted 50-fold in fresh MHB and incubated at 37° C. for 2-3 h with shaking (˜180 RPM). Compound stock solutions were prepared as 0.64 mg/mL or 2.56 mg/mL in water. The compounds, at twice the final desired concentration, were serially diluted 2-fold across the wells of 96-well plates (Polystyrene, Corning, catalogue No. 3370). Mid-log phase bacterial cultures (after 2-3 h incubation) were diluted to a final concentration of 1×10^6 colony forming units (CFU)/mL, and 50 μL was added to each well giving a final cell density of 5×10^5 and a compound concentration range of 32 μg/mL to 0.015 μg/mL (128-0.06 μg/mL against P. aeruginosa PA9704).

[14] = In vitro nephrotoxicity, GGT release from primary human kidney cells; format: cell-based; conditions: pH 7.4
Text: as §1, §2, §3
Release of gamm-glutanyltransferase was assessed according to Orlowski, M., Meister, A. 1963. γ-Glutamyl-p-nitroanilide: A new convenient substrate for determination and study of L- and D-γ-glutamyltranspeptidase activities (Biochim. Biophys. Acta 73: 679-681.)
A 2.5 mM substrate Solution was prepared from 67 mg γ-glutamyl-p-nitroanilide+264 mg glycylglycine in 100 mL of 0.05 M Tris, pH 8.2 (50 mM Tris, pH 8.2: 605 mg Tris/HCl per 100 mL).
For the assay in 96-well plates, 6-μL of sample and 0.3 mL substrate solution were added to each well. The absorbance was measured at 410 nm for the appearance of product, p-nitroanilide (molar extinction=8800 M^−1 cm^−1).

[15] = in vitro; conditions: human
In short: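 Cells (4000/well, pre-attached 24 h) then received 5 μM resazurin for 2 h, with fluorescence measured at ex 560/em 590.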

[16] = tested on: P. aeruginosa GN_105, PmxR; conditions: GN 105, PmxR
In short: as §4

| Compound | CC50 [1] [µg/mL] | MIC A. baumannii ATCC 19606 [2] [µg/mL] | MIC P. aeruginosa ATCC 27853 [3] [µg/mL] | MIC E. coli ATCC 25922 [4] [µg/mL] | MIC K. pneumoniae ATCC 700603, MDR [5] [µg/mL] | MIC P. aeruginosa GN_043, PmxR [6] [µg/mL] | MIC S. aureus ATCC 25923, MSSA [7] [µg/mL] | MIC A. baumannii GN_093 PmxR [8] [µg/mL] | MIC K. pneumoniae ATCC BAA-2146, NDM-1 pos [9] [µg/mL] | MIC K. pneumoniae GN_102 PmxR [10] [µg/mL] | MIC K. pneumoniae ATCC 13883 [11] [µg/mL] | MIC K. pneumoniae GN_106, PmxR [12] [µg/mL] | CC50 [14] [µg/mL] | further results |
| --- | --- | --- | --- | --- | --- | --- | --- | --- | --- | --- | --- | --- | --- | --- |
| CCCCCCC[C@@H](O)CC(=O)N[C@H](CCN)C(=O)N[C@H]1CCNC(=O)[C@H](CC(C)C)NC(=O)[C@H](CCCNC(=N)N)NC(=O)[C@H](CCN)NC(=O)[C@H](CC(C)C)NC(=O)[C@@H](Cc2ccccc2)NC(=O)[C@H](CCN)NC1=O [compound 8643, 3(R)OH-nC9CO-D-Dab-cyc[L-Dab-L-DAB-D-Phe-L-Leu-L-Dab-L-Arg-L-Leu]] ({Decanoyl(3R-OH)}-[dDab][Dab][Dab][dF]L[Dab]RL; lactam 2-C) | > 128 | 4 (≈ 3.63 µM) | 2 (≈ 1.82 µM) | 1 (≈ 0.909 µM) | 2 (≈ 1.82 µM) | 2 (≈ 1.82 µM) | 16 (≈ 14.5 µM) | 16 (≈ 14.5 µM) | 2 (≈ 1.82 µM) | 2 (≈ 1.82 µM) | 2 (≈ 1.82 µM) | 2 (≈ 1.82 µM) | > 128 | MIC N. gonorrhoeae FA19 ATCC BAA-1838 [13]: 1.56 µg/mL (≈ 1.42 µM) |
| CCCCCCC[C@@H](O)CC(=O)N[C@H](CCN)C(=O)N[C@H]1CCNC(=O)[C@H](CC(C)C)NC(=O)[C@H](CCN)NC(=O)[C@H](CN)NC(=O)[C@H](CC(C)C)NC(=O)[C@@H](Cc2ccccc2)NC(=O)[C@H](CCN)NC1=O [compound 990, 3(R)OH-nC9CO-D-Dab-cyc[L-Dab-L-Dab-D-Phe-L-Leu-L-Dap-L-Dab-L-Leu]] ({Decanoyl(3R-OH)}-[dDab][Dab][Dab][dF]L[Dap][Dab]L; lactam 2-C) | 87 (≈ 84.4 µM) |  |  |  |  |  |  |  |  |  |  |  | > 128 | CC50 at 24 h [15]: > 300 µM; MIC, P. aeruginosa PA9704, PmxR [16]: 4 µg/mL (≈ 3.88 µM); MIC, A. baumannii ATCC 19606 [2]: 8 µg/mL (≈ 7.76 µM); MIC, P. aeruginosa ATCC 27853 [3]: 2 µg/mL (≈ 1.94 µM); MIC, E. coli ATCC 25922 [4]: 4 µg/mL (≈ 3.88 µM); MIC, K. pneumoniae ATCC 700603, MDR [5]: 4 µg/mL (≈ 3.88 µM); MIC, P. aeruginosa FADDI-PA070, PmxR ([6]; Table 5): 2 µg/mL (≈ 1.94 µM); MIC, S. Aureus ATCC 25923, MSSA [7]: 32 µg/mL (≈ 31.1 µM); MIC, A. baumannii Cl Ptyela 10073 4512:2, PmxR [8]: 16 µg/mL (≈ 15.5 µM); MIC, K. pneumoniae ATCC BAA-2146, NDM-1 pos [9]: 4 µg/mL (≈ 3.88 µM); MIC, K. pneumoniae Cl Koprana 10065 0661:1, PmxR [10]: 4 µg/mL (≈ 3.88 µM); MIC, K. pneumoniae ATCC 13883 [11]: 4 µg/mL (≈ 3.88 µM); MIC, K. pneumoniae Cl 138-16347-20362, PmxR [12]: 4 µg/mL (≈ 3.88 µM) |
| CCCCCCC[C@@H](O)CC(=O)N[C@H](CCN)C(=O)N[C@H]1CCNC(=O)[C@H](CC(C)C)NC(=O)[C@H](CN)NC(=O)[C@H](CCN)NC(=O)[C@H](CC(C)C)NC(=O)[C@@H](Cc2ccc(-c3ccccc3)cc2)NC(=O)[C@H](CCN)NC1=O [compound 5383, 3(R)OH-nC9CO-D-Dab-cyc[L-Dab-L-Dab-D-Bip-L-Leu-L-Dab-L-Dap-L-Leu]] ({Decanoyl(3R-OH)}-[dDab][Dab][Dab][dBip]L[Dab][Dap]L; lactam 2-C) | > 128 | 4 (≈ 3.62 µM) | 2 (≈ 1.81 µM) | 4 (≈ 3.62 µM) | 4 (≈ 3.62 µM) | 2 (≈ 1.81 µM) | 2 (≈ 1.81 µM) | 4 (≈ 3.62 µM) | 4 (≈ 3.62 µM) | 8 (≈ 7.23 µM) | 4 (≈ 3.62 µM) | 8 (≈ 7.23 µM) | > 128 | MIC P. aeruginosa GN_105, PmxR [16]: 2 µg/mL (≈ 1.81 µM) |

— US11279733B2, “Peptide antibiotics” (priority 2017, dated 2022)
